Entries after “also recorded” stand apart in the source; their conditions may differ.
System: striated anal sphincter
Assay: Effect on the electromyographic activity of the rabbit striated anal sphincter under bladder irritation (SS-EMG)
Assay type: in vivo
Protocol: The effect of the HP749 compound was tested on rabbits under conditions of bladder irritation. Female rabbits of the New Zealand race weighing from 2.5 to 3.5 kg were used. The bladder irritation was caused by transcontinuous bladder infusion of 0.5% acetic acid. Under these conditions, the striated anal sphincter electromyography is increased. Throughout the experiment, the animal was placed in the supine position and anaesthetized with 2-3% of halothane. The striated sphincter electromyography (SS-EMG) was carried out using two electrodes (30-gauge needle) placed percutaneously in the striated anal sphincter, approximately 5-10 mm from the anus (laterally). The electric signals were amplified on an ML136 preamplifier (AD Instruments, PanLab, Barcelona, Spain), filtered below 1 Hz and above 5 KHz and presented in a PowerLab window. The striated sphincter electromyography (SS-EMG) was recorded continuously during the cystometry. Cumulative doses of the HP749 compound (0, 1, 3 and 5 mg/kg) were administered through an intravenous canula connected to the ear vein. The medicaments in saline solution were freshly prepared before each experiment and administered in a volume of 1 ml, followed by rinsing with 1 ml of physiological saline solution. The results were expressed by the mean±the standard error of the […]. The electromyographic values obtained under conditions of irritation after administration of a placebo were used as control values. The effects of the HP749 compound were analysed and compared with the control values by means of a Wilcoxon test. The results obtained were considered to be significant when p<0.05.

CCCN(c1ccncc1)n1ccc2ccccc21 [HP749, N-propyl-N-(4-pyridinyl)-1H-indol-1-amine]
mean increase in the EMG activity compared with the control value (anaesthetized female New Zealand rabbits, bladder irritation with 0.5% acetic acid, cumulative i.v. doses 1, 3 and 5 mg/kg, control = placebo, p<0.01): 155%
effect on the electromyographic (EMG) activity of the striated anal sphincter (at all the doses (1, 3 and 5 mg/kg i.v.), FIG. 1, Wilcoxon test vs placebo control): significant effect; also recorded: powerful effect
dose at which the effect on the external anal sphincter appeared to have reached its maximum (rabbits, i.v., lowest dose tested): 1 mg/kg

Source: patent US20100063102A1, “TREATMENT OF FAECAL INCONTINENCE” (UROGENE, priority 2007, published 2010)
